System: cancer-related neuropathic pain
Experiment: Open label dose escalation study of flupirtine, case studies JE and RM
Conditions: flupirtine 100 mg qid; for neuropathic discriminant function score: >0 = neuropathic, day 1 baseline 0.262; for electric pain score / freezing pain score / numbness score / score for increased pain due to touch / score for increased pain due to weather changes / squeezing pain score / LEAST PAIN LAST 24 HRS: day 1 baseline 0; for PERCENTAGE PAIN RELIEF LAST 24 HOURS / WORST PAIN SCORE LAST 24 HOURS: day 1 baseline 10; for score for overly sensitive to touch / tingling pain score: day 1 baseline 20; for burning pain score / overwhelming pain score: day 1 baseline 90; for for shooting pain score / unpleasant pain score: day 1 baseline 100; for SCORE RELATIONSHIPS / SCORE MOOD / SCORE ENJOYMENT / SCORE SLEEP / SCORE WALKING / SCORE GENERAL ACTIVITY / SCORE TOTAL ACTIVITY: pain interference 1-10; for SCORE RELATIONSHIPS / SCORE NAUSEA / WHO PERFORMANCE STATUS: day 1 baseline 3; for SCORE MOOD / SCORE POOR APPETITE / SCORE UN[…] GAIT / PAIN SCORE RIGHT NOW: day 1 baseline 4; for SCORE ENJOYMENT / SCORE SLEEP: day 1 baseline 6; for SCORE WALKING: day 1 baseline 7; for SCORE GENERAL ACTIVITY / SCORE TOTAL ACTIVITY / AVERAGE PAIN LAST 24 HOURS: day 1 baseline 8; for SCORE CONSTIPATION / SCORE INDIGESTION / SCORE POOR CONCENTRATION / SCORE DROWSINESS / SCORE NAUSEA / SCORE POOR APPETITE / SCORE UN[…] GAIT: scale 1-4; for SCORE CONSTIPATION / SCORE INDIGESTION / SCORE POOR CONCENTRATION: day 1 baseline 1; for SCORE DROWSINESS: day 1 baseline 2; for LEAST PAIN LAST 24 HRS / PAIN SCORE RIGHT NOW / AVERAGE PAIN LAST 24 HOURS / WORST PAIN SCORE LAST 24 HOURS: scale to 10; for WHO PERFORMANCE STATUS: 0=fully active, 4=completely disabled

CCOC(=O)Nc1ccc(NCc2ccc(F)cc2)nc1N [flupirtine]
75%: PERCENTAGE PAIN RELIEF LAST 24 HOURS (RM day 4)
50: overwhelming pain score (RM day 3)
0: electric pain score (RM day 2) | freezing pain score (RM day 2) | numbness score (RM day 2) | score for increased pain due to touch (RM day 2) | score for increased pain due to weather changes (RM day 2) | squeezing pain score (RM day 2) | score for overly sensitive to touch (RM day 2) | tingling pain score (RM day 2) | LEAST PAIN LAST 24 HRS (RM day 2) | electric pain score (RM day 3) | freezing pain score (RM day 3) | numbness score (RM day 3) | score for increased pain due to touch (RM day 3) | score for increased pain due to weather changes (RM day 3) | squeezing pain score (RM day 3) | score for overly sensitive to touch (RM day 3) | tingling pain score (RM day 3) | burning pain score (RM day 3) | LEAST PAIN LAST 24 HRS (RM day 3) | electric pain score (RM day 4) | freezing pain score (RM day 4) | numbness score (RM day 4) | score for increased pain due to touch (RM day 4) | score for increased pain due to weather changes (RM day 4) | squeezing pain score (RM day 4) | score for overly sensitive to touch (RM day 4) | tingling pain score (RM day 4) | burning pain score (RM day 4) | for shooting pain score (RM day 4) | LEAST PAIN LAST 24 HRS (RM day 4) | electric pain score (RM day 5) | freezing pain score (RM day 5) | numbness score (RM day 5) | score for increased pain due to touch (RM day 5) | score for increased pain due to weather changes (RM day 5) | squeezing pain score (RM day 5) | score for overly sensitive to touch (RM day 5) | tingling pain score (RM day 5) | burning pain score (RM day 5) | for shooting pain score (RM day 5)
8: WORST PAIN SCORE LAST 24 HOURS (RM day 2) | PAIN SCORE RIGHT NOW (RM day 3) | AVERAGE PAIN LAST 24 HOURS (RM day 3) | WORST PAIN SCORE LAST 24 HOURS (RM day 3) | AVERAGE PAIN LAST 24 HOURS (RM day 4) | WORST PAIN SCORE LAST 24 HOURS (RM day 4)
1: SCORE CONSTIPATION (RM day 2) | SCORE INDIGESTION (RM day 2) | SCORE NAUSEA (RM day 2) | SCORE SLEEP (RM day 3) | SCORE CONSTIPATION (RM day 3) | SCORE INDIGESTION (RM day 3) | SCORE POOR CONCENTRATION (RM day 3) | SCORE NAUSEA (RM day 3) | SCORE POOR APPETITE (RM day 3) | SCORE INDIGESTION (RM day 4) | SCORE POOR CONCENTRATION (RM day 4) | SCORE DROWSINESS (RM day 4) | SCORE POOR APPETITE (RM day 4)
2: SCORE DROWSINESS (RM day 3) | SCORE MOOD (RM day 4) | SCORE SLEEP (RM day 4) | SCORE NAUSEA (RM day 4)
75: unpleasant pain score (RM day 3)
60: unpleasant pain score (RM day 4)
4: SCORE MOOD (RM day 2) | SCORE ENJOYMENT (RM day 2) | SCORE UN[…] GAIT (RM day 2) | SCORE MOOD (RM day 3) | SCORE ENJOYMENT (RM day 3) | SCORE UN[…] GAIT (RM day 3) | SCORE UN[…] GAIT (RM day 4)
65%: PERCENTAGE PAIN RELIEF LAST 24 HOURS (RM day 5)
25: overwhelming pain score (RM day 5)
−0.228: neuropathic discriminant function score (RM day 2)
−1.003: neuropathic discriminant function score (RM day 5)
80: for shooting pain score (RM day 2) | unpleasant pain score (RM day 5)
2.5: PAIN SCORE RIGHT NOW (RM day 4)
20: for shooting pain score (RM day 3)
70: burning pain score (RM day 2) | overwhelming pain score (RM day 2)
3: SCORE RELATIONSHIPS (RM day 2) | SCORE POOR CONCENTRATION (RM day 2) | SCORE DROWSINESS (RM day 2) | SCORE POOR APPETITE (RM day 2) | WHO PERFORMANCE STATUS (RM day 3) | SCORE RELATIONSHIPS (RM day 3) | WHO PERFORMANCE STATUS (RM day 4) | SCORE RELATIONSHIPS (RM day 4) | SCORE ENJOYMENT (RM day 4) | SCORE CONSTIPATION (RM day 4) | WHO PERFORMANCE STATUS (RM day 5)
6: SCORE SLEEP (RM day 2) | SCORE WALKING (RM day 2) | SCORE GENERAL ACTIVITY (RM day 2) | SCORE TOTAL ACTIVITY (RM day 2) | PAIN SCORE RIGHT NOW (RM day 2) | SCORE WALKING (RM day 3)
−1.138: neuropathic discriminant function score (RM day 4)
15%: PERCENTAGE PAIN RELIEF LAST 24 HOURS (RM day 2) | PERCENTAGE PAIN RELIEF LAST 24 HOURS (RM day 3)
5: AVERAGE PAIN LAST 24 HOURS (RM day 2) | SCORE GENERAL ACTIVITY (RM day 3) | SCORE TOTAL ACTIVITY (RM day 3) | SCORE WALKING (RM day 4) | SCORE GENERAL ACTIVITY (RM day 4) | SCORE TOTAL ACTIVITY (RM day 4)
95: unpleasant pain score (RM day 2)
−1.008: neuropathic discriminant function score (RM day 3)
30: overwhelming pain score (RM day 4)
